# Results from ChEMBL document CHEMBL1150085, “Gummiferol, a cytotoxic polyacetylene from the leaves of Adenia gummifera” (1995).
# Key:
# [1] = Cytotoxicity against human BC1 cells; type: functional; conditions: read-out: ED50 (the source's name)
# HT = assay: Cytotoxicity against human HT cells; type: functional; conditions: read-out: ED50 (the source's name)
# Lu1 = assay: Cytotoxicity against human Lu1 cells; type: functional; conditions: read-out: ED50 (the source's name)
# SK-MEL-2 = assay: Cytotoxicity against human SK-MEL-2 cells; type: functional; conditions: read-out: ED50 (the source's name)
# Col2 = assay: Cytotoxicity against human Col2 cells; type: functional; conditions: read-out: ED50 (the source's name)
# KB [2] = assay: Cytotoxicity against human KB cells; type: functional; conditions: read-out: ED50 (the source's name)
# KB [3] = assay: Cytotoxicity against human vinblastine-positive KB cells; type: functional; conditions: read-out: ED50 (the source's name)
# KB [4] = assay: Cytotoxicity against human vinblastine-negative KB cells; type: functional; conditions: read-out: ED50 (the source's name)
# P388 = assay: Cytotoxicity against mouse P388 cells; type: functional; conditions: read-out: ED50 (the source's name)
# A-431 = assay: Cytotoxicity against human A431 cells; type: functional; conditions: read-out: ED50 (the source's name)
# LNCaP = assay: Cytotoxicity against human LNCAP cells; type: functional; conditions: read-out: ED50 (the source's name)
# ZR-75-1 = assay: Cytotoxicity against human ZR-75-1 cells; type: functional; conditions: read-out: ED50 (the source's name)
# [5] = Cytotoxicity against human U373 cells; type: functional, U-373MG ATCC; conditions: U373 MG, read-out: ED50 (the source's name)
compound,measurement,setting,value
CC(=O)OC/C=C/C1OC1C1OC1C#CC#CC#CCO (stereo not drawn) [GUMMIFEROL],EC50,[1],0.2 µg/mL
same,EC50,HT,0.1 µg/mL
same,EC50,Lu1,0.9 µg/mL
same,EC50,SK-MEL-2,1.3 µg/mL
same,EC50,Col2,0.6 µg/mL
same,EC50,KB [2],0.3 µg/mL
same,EC50,KB [3],0.3 µg/mL
same,EC50,KB [4],0.4 µg/mL
same,EC50,P388,0.03 µg/mL
same,EC50,A-431,0.5 µg/mL
same,EC50,LNCaP,0.2 µg/mL
same,EC50,ZR-75-1,0.2 µg/mL
same,EC50,[5],0.05 µg/mL
